According to ChEMBL document CHEMBL4665846, “Piperlonguminine and Piperine Analogues as TrxR Inhibitors that Promote ROS and Autophagy and Regulate p38 and Akt/mTOR Signaling” (J Nat Prod, 2020):
Active and inactive are the calls of the source. The calls are words filed in the database; no cut-off is given here.

Experiments:
HepG2 = experiment: Cytotoxicity against human HepG2 cells assessed as reduction in cell viability after 72 hrs by MTT assay; format: functional, cell-based; conditions: HepG2, 72 h
Bel-7402 = experiment: Cytotoxicity against human Bel-7402 cells assessed as reduction in cell viability after 72 hrs by MTT assay; format: functional, cell-based; conditions: for IC50: Bel-7402, 72 h
Bel7402/5-FU [1] = experiment: Cytotoxicity against human BEL-7402/5-FU cells assessed as reduction in cell viability after 72 hrs by MTT assay; format: functional, cell-based
HCT-116 = experiment: Cytotoxicity against human HCT-116 cells assessed as reduction in cell viability after 72 hrs by MTT assay; format: functional, cell-based; conditions: HCT-116, 72 h
HGC-27 [2] = experiment: Cytotoxicity against human HGC-27 cells assessed as reduction in cell viability after 72 hrs by MTT assay; format: functional, cell-based; conditions: HGC-27, 72 h
[3] = biological target: T1, Thioredoxin reductase 1, cytoplasmic (Homo sapiens, UniProt Q16881); experiment: Inhibition of TrxR in human BEL-7402/5-FU cells by colorimetric assay; format: cell-based
T1 sequence (Q16881 whole entry): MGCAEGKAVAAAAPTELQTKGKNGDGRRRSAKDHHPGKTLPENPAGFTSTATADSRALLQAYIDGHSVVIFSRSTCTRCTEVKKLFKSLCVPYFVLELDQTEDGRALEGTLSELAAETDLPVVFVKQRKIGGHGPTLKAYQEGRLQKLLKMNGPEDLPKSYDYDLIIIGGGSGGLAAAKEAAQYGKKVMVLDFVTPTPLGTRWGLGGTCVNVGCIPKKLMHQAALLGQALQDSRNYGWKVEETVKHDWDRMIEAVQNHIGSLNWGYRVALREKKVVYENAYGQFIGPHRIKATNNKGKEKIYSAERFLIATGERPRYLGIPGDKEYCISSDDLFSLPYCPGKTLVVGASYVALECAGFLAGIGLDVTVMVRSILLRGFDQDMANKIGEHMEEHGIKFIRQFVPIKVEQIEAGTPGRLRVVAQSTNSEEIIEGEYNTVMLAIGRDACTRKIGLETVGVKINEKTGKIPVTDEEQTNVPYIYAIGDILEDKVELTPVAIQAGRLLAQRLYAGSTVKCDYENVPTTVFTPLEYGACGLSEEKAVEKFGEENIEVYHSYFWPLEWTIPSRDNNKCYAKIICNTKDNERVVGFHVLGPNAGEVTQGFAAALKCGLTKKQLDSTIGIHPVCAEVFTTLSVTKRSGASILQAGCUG

Bel7402/5-FU [4] = experiment: Induction of mitochondrial membrane potential loss in human BEL-7402/5-FU cells at 10 uM after 24 hrs by JC-1 staining based fluorescence microscopic method; format: functional, cell-based
HGC-27 [5] = experiment: Potency index, ratio of piperlongumine IC50 to test compound IC50 for cytotoxicity against human HGC-27 cells; format: functional
Bel7402/5-FU [6] = experiment: Potency index, ratio of piperlongumine IC50 to test compound IC50 for cytotoxicity against human BEL-7402/5-FU cells; format: functional
[7] = Selectivity ratio of IC50 for cytotoxicity against human L02 cells to IC50 for cytotoxicity against human Bel-7402 cells; format: toxicity, cell-based; conditions: L02 cells and Bel-7402 cells, read-out: Ratio IC50
[8] = Selectivity ratio of IC50 for cytotoxicity against human L02 cells to IC50 for cytotoxicity against human BEL-7402/5-FU cells
[9] = biological target: T2, Thioredoxin reductase 1, cytoplasmic (Homo sapiens) (UniProt Q16881); experiment: Potency index, ratio of piperlongumine IC50 to test compound IC50 for inhibition of TrXr in human BEL-7402/5-FU cells; format: cell-based
T2 sequence (whole entry): T1 sequence (Q16881 whole entry)

Bel7402/5-FU [10] = experiment: Induction of ROS generation in human BEL-7402/5-FU cells at 10 uM using H2O2 as substrate preincubated for 24 hrs followed by substrate addition and measured after 6 hrs by ROS-Glo assay relative to control; format: functional
Bel7402/5-FU [11] = experiment: Induction of mitochondrial membrane potential loss in human BEL-7402/5-FU cells at 1 uM after 24 hrs by JC-1 staining based fluorescence microscopic method relative to piperlongumine; format: functional
Bel7402/5-FU [12] = experiment: Induction of autophagy in human BEL-7402/5-FU cells expressing mRFP-eGFP-LC3 assessed as autophagosomes at 0.8 to 2 uM after 24 hrs by confocal laser scanning microscopic method; format: functional, cell-based; conditions: dose microM 0.8-2, time 24.0 hrs
Bel7402/5-FU [13] = experiment: Induction of autophagy in human BEL-7402/5-FU cells expressing mRFP-eGFP-LC3 assessed as auto lysosomes at 0.8 to 2 uM after 24 hrs by confocal laser scanning microscopic method; format: functional, cell-based; conditions: dose microM 0.8-2, time 24.0 hrs
Bel7402/5-FU [14] = experiment: Induction of autophagy in human BEL-7402/5-FU cells assessed as down regulation of LC3-1 protein expression after 72 hrs by Western blot analysis; format: functional, cell-based; conditions: dose microM 0.32-2, time 72.0 hrs
Bel7402/5-FU [15] = experiment: Induction of autophagy in human BEL-7402/5-FU cells assessed as down regulation of P62 protein expression after 72 hrs by Western blot analysis; format: functional, cell-based; conditions: dose microM 0.32-2, time 72.0 hrs
Bel7402/5-FU [16] = experiment: Induction of autophagy in human BEL-7402/5-FU cells assessed as up regulation of LC3-2 protein expression after 72 hrs by Western blot analysis; format: functional, cell-based; conditions: dose microM 0.32-2, time 72.0 hrs
Bel7402/5-FU [17] = experiment: Induction of autophagy in human BEL-7402/5-FU cells assessed as up regulation of beclin-1 protein expression after 72 hrs by Western blot analysis; format: functional, cell-based; conditions: dose microM 0.32-2, time 72.0 hrs
[18] = biological target: T3, MAP kinase p38 (Homo sapiens) (UniProt O15264+Q15759+Q16539+P53778); experiment: Activation of p38 phosphorylation in human BEL-7402/5-FU cells incubated for 72 hrs by Western blot analysis; format: cell-based; conditions: filed as activator, dose microM 0.32-2, time 72.0 hrs
[19] = biological target: T4, Serine/threonine-protein kinase AKT (Homo sapiens) (UniProt P31751+Q9Y243+P31749); experiment: Inhibition of AKT phosphorylation in human BEL-7402/5-FU cells incubated for 72 hrs by Western blot analysis; format: cell-based; conditions: dose microM 0.32-2, time 72.0 hrs
[20] = biological target: Serine/threonine-protein kinase mTOR (Homo sapiens) (UniProt P42345); experiment: Inhibition of mTOR phosphorylation in human BEL-7402/5-FU cells incubated for 72 hrs by Western blot analysis; format: cell-based; conditions: dose microM 0.32-2, time 72.0 hrs
Bel7402/5-FU [21] = experiment: Induction of autophagy in human BEL-7402/5-FU cells expressing mRFP-eGFP-LC3 assessed as autophagosomes at 2 uM after 24 hrs by confocal laser scanning microscopic method; format: functional, cell-based
Bel7402/5-FU [22] = experiment: Induction of autophagy in human BEL-7402/5-FU cells expressing mRFP-eGFP-LC3 assessed as auto lysosomes at 2 uM after 24 hrs by confocal laser scanning microscopic method; format: functional, cell-based
[23] = biological target: T3, MAP kinase p38 (Homo sapiens); experiment: Activation of p38 phosphorylation in human BEL-7402/5-FU cells at 2 uM incubated for 72 hrs by Western blot analysis; format: cell-based; conditions: filed as activator
[24] = biological target: T4, Serine/threonine-protein kinase AKT (Homo sapiens); experiment: Inhibition of AKT phosphorylation in human BEL-7402/5-FU cells at 2 uM incubated for 72 hrs by Western blot analysis; format: cell-based
[25] = biological target: Serine/threonine-protein kinase mTOR (Homo sapiens) (UniProt P42345); experiment: Inhibition of mTOR phosphorylation in human BEL-7402/5-FU cells at 2 uM incubated for 72 hrs by Western blot analysis; format: cell-based

T4 sequence (P31749 whole entry, looked up): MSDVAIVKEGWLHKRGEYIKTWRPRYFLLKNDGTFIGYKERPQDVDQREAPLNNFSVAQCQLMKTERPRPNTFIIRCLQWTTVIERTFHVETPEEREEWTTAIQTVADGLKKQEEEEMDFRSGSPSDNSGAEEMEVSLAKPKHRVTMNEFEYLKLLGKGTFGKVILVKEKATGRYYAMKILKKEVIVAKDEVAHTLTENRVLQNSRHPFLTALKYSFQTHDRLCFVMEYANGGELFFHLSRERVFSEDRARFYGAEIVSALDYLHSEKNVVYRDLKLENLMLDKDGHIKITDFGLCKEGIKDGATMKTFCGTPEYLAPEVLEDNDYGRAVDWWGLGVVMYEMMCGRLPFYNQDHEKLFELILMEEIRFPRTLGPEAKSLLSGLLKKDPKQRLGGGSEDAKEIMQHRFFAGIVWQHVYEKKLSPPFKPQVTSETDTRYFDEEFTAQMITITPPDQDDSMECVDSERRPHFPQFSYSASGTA
T4 sequence (P31751 whole entry, looked up): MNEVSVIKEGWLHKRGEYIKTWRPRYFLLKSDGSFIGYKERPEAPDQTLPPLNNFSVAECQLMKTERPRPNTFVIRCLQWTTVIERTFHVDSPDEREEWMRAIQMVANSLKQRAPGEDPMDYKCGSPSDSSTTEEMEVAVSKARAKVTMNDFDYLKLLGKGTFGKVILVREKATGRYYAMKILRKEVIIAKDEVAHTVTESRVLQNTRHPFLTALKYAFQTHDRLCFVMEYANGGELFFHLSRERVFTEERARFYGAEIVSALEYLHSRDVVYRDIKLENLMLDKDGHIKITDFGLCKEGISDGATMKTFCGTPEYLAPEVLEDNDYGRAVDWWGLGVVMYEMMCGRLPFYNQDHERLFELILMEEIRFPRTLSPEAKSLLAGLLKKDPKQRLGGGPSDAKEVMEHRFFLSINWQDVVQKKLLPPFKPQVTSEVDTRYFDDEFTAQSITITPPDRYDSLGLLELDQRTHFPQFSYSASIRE
T4 sequence (Q9Y243 whole entry, looked up): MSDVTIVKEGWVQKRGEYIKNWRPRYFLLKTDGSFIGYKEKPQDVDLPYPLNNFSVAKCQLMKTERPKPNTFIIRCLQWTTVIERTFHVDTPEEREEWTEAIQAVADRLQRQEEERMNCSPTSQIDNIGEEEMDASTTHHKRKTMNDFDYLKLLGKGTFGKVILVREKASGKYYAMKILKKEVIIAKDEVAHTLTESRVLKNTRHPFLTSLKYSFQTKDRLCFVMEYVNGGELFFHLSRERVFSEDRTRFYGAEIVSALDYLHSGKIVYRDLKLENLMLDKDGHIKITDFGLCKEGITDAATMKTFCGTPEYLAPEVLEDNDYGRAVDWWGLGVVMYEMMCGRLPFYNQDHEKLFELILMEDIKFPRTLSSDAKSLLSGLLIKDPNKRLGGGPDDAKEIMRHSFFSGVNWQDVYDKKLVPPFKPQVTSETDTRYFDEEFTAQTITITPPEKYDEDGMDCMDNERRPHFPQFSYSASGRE

Compound | IC50 (HepG2) [µM] | IC50 (Bel-7402) [µM] | IC50 (Bel7402/5-FU [1]) [µM] | IC50 (HCT-116) [µM] | IC50 (HGC-27 [2]) [µM] | further results
O=C1C=CCC/C1=C\C=C\c1ccc([N+](=O)[O-])cc1 | 4.9 | 4.2 | 4.5 | 5 | 5.2 | 
O=C1C=CCC/C1=C\C=C\c1ccccc1[N+](=O)[O-] | 6.8 | 4.6 | 5.2 | 6.2 | 4.4 | 
O=C1C=CCC/C1=C\C=C\c1ccccc1 | 7.1 | 4.2 | 4.2 | 5.4 | 4.5 | 
O=C1C=CCC/C1=C\C=C\c1ccc(Cl)cc1 | 3.7 | 3.2 | 3.2 | 3.5 | 4.8 | 
O=C1C=CCC/C1=C\C=C\c1ccc(F)cc1 | 2.9 | 1.8 | 1.9 | 2.2 | 2.3 | IC50 [3]: 0.6 µM; Activity (Bel7402/5-FU [4]): Active
Cc1ccc(/C=C/C=C2\CCC=CC2=O)cc1 | 8.6 | 6.3 | 5.8 | 7.2 | 8.1 | 
O=C(/C=C/C=C/c1ccc2c(c1)OCO2)N1CCCCC1 [PIPERINE] | > 10 | > 10 |  |  |  | 
O=C1C=CCC/C1=C\C=C\c1ccc(Br)cc1 | 6.1 | 3.6 | 4.3 | 5.2 | 4.5 | 
COc1cc(/C=C/C=C2\CCC=CC2=O)ccc1O | 0.9 | 0.8 | 0.8 | 0.9 | 1.2 | Activity (Bel-7402): Dose-dependent effect; Activity (Bel7402/5-FU [1]): Dose-dependent effect; Ratio IC50 (HGC-27 [5]): 7; Ratio IC50 (Bel7402/5-FU [6]): 10; selectivity ratio [7]: 6; Ratio IC50 [8]: 6; IC50 [3]: 0.2 µM; Ratio IC50 [9]: 9; Activity (Bel7402/5-FU [10]): 50%; Activity (Bel7402/5-FU [4]): Active; fold change (FC) (Bel7402/5-FU [11]): 10; Activity (Bel7402/5-FU [12]): Active; Activity (Bel7402/5-FU [13]): Active; Activity (Bel7402/5-FU [14]): Dose-dependent effect; Activity (Bel7402/5-FU [15]): Dose-dependent effect; Activity (Bel7402/5-FU [16]): Dose-dependent effect; Activity (Bel7402/5-FU [17]): Dose-dependent effect; Activity [18]: Dose-dependent effect; inhibition [19]: Dose-dependent effect; inhibition [20]: Dose-dependent effect
COc1ccc(/C=C/C=C2\CCC=CC2=O)cc1 | 2.4 | 1.4 | 1.7 | 2.1 | 3.2 | IC50 [3]: 0.4 µM; Activity (Bel7402/5-FU [4]): Active
COc1cc(/C=C/C(=O)N2CCC=CC2=O)cc(OC)c1OC [PIPLARTINE] |  |  |  | 6.9 | 8.1 | Activity (Bel7402/5-FU [21]): Active; Activity (Bel7402/5-FU [22]): Active; Activity [23]: Active; inhibition [24]: Active; inhibition [25]: Active
O=C1C=CCC/C1=C\C(Br)=C\c1ccccc1 | > 10 | > 10 | > 10 | > 10 | > 10 | 
COc1ccccc1/C=C/C=C1\CCC=CC1=O | 5.8 | 2.6 | 2.5 | 2.8 | 3.1 | 
CC(=C\c1ccccc1)/C=C1\CCC=CC1=O | 4.6 | 3.9 | 4.2 | 4.8 | 5.2 | 
CC(=O)Oc1ccc(/C=C/C=C2\CCC=CC2=O)cc1 | 4.5 | 3.8 | 4.1 | 4.6 | 4.9 | 
CN(C)c1ccc(/C=C/C=C2\CCC=CC2=O)cc1 | 1.1 | 0.9 | 1 | 1.2 | 1.5 | IC50 [3]: 0.2 µM; Ratio IC50 [9]: 9; Activity (Bel7402/5-FU [4]): Active
